For this experiment, the target named is wild-type human cardiac sodium channel, hNav1.5 (late sodium current) in HEK293 cells (Homo sapiens, UniProt Q14524). Kind of experiment: Late INa screening assay (automated whole-cell patch clamp, PatchXpress). The experiment is classed as cell-based. Particulars: late INa generated with 10 μM Tefluthrin (or 50 nM ATX II), HEK293 hNav1.5; for inhibition at 1 µM: HEK293, compound at 1 μM, read-out: Late INa 1 μM (percent block of late INa). The method in brief:
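hNav1.5-expressing HEK293 cells (no β subunits) were recorded by automated whole-cell patch clamp at 24–27 °C with CsF-based internal solution. Late current was induced by 10 μM tefluthrin (or 50 nM ATX II) and evoked by 250 ms steps from −120 to −20 mV at 0.1 Hz. Compounds, typically 10 μM, were applied in three additions over 7–8 min; mean current at 225–250 ms, normalised to 0Na baseline, gave percent block.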

Sequence of wild-type human cardiac sodium channel, hNav1.5 (late sodium current) in HEK293 cells (Q14524 whole entry): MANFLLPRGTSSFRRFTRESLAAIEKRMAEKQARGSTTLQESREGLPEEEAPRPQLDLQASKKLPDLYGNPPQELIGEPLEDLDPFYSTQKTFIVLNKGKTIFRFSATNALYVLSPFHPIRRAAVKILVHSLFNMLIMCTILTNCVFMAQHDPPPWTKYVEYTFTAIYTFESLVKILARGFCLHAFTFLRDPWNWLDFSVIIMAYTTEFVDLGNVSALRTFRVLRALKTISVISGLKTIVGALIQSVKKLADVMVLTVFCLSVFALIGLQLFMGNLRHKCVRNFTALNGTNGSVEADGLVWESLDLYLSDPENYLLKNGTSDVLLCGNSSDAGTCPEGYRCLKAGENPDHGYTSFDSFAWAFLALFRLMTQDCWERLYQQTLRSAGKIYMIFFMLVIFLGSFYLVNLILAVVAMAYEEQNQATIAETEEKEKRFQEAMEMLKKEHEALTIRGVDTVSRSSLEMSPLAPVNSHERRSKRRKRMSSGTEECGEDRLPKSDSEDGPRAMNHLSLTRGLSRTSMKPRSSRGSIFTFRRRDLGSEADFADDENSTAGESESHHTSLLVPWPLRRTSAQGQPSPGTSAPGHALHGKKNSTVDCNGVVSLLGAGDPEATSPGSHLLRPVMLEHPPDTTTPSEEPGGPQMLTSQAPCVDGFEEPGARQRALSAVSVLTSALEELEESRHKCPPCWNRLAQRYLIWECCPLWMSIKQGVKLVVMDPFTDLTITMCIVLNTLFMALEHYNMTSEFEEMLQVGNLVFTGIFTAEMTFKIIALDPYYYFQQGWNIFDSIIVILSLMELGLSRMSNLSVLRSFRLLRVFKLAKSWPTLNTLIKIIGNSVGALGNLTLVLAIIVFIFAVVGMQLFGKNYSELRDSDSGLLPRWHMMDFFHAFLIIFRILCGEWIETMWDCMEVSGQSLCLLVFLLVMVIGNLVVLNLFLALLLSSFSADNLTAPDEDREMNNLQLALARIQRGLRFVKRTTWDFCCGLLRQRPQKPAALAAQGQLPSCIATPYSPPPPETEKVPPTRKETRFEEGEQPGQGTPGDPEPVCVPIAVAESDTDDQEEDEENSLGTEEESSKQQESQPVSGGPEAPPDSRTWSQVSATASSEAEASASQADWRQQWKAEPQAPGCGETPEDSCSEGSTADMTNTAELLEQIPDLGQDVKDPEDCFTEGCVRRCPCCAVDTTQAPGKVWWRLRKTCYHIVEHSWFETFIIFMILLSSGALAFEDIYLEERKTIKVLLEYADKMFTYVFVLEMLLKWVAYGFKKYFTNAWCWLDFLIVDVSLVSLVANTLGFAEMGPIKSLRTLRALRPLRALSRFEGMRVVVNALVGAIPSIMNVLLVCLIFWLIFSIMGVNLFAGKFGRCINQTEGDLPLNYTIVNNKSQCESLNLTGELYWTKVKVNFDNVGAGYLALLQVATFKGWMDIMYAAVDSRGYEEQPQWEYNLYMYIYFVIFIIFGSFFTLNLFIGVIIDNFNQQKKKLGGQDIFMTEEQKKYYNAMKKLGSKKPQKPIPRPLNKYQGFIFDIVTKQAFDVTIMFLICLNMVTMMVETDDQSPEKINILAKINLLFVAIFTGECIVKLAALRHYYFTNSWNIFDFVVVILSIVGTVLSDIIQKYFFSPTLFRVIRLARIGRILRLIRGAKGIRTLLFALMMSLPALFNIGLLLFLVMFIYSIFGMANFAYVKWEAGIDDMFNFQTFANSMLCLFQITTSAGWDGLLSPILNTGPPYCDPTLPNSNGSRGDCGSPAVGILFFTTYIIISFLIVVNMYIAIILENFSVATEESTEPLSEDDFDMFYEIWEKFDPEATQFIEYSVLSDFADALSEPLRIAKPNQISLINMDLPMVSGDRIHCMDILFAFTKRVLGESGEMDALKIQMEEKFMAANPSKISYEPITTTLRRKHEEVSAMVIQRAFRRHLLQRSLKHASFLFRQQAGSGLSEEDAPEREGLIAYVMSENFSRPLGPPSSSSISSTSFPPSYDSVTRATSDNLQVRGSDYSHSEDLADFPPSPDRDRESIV

Consider `CC1(C)OC[C@@H](c2nc(Cn3nc4ccc(-c5ccc(OC(F)(F)F)cc5)cn4c3=O)no2)O1` [compound 152, (S)-2-((5-(2,2-dimethyl-1,3-dioxolan-4-yl)-1,2,4-oxadiazol-3-yl)methyl)-6-(4-(trifluoromethoxy)phenyl)-[1,2,4]triazolo[4,3-a]pyridin-3(2H)-one], for which the inhibition at 1 µM came to 10.7%. The same measure, in the same setting: the same measure for `O=c1n(CC(O)COc2ccccc2-c2ccccc2)nc2ccc(-c3ccc(OC(F)(F)F)cc3)cn12` (centres unmarked) [compound 100, 2-(3-(biphenyl-2-yloxy)-2-hydroxypropyl)-6-(4-(trifluoromethoxy)phenyl)-[1,2,4]triazolo[4,3-a]pyridin-3(2H)-one]: 18%. The same measure, in the same setting: the same measure for `O=c1n(Cc2nc(-c3ccccc3Cl)no2)nc2ccc(-c3ccc(OC(F)(F)F)cc3)cn12` [compound 33, 2-((3-(2-chlorophenyl)-1,2,4-oxadiazol-5-yl)methyl)-6-(4-(trifluoromethoxy)phenyl)-[1,2,4]triazolo[4,3-a]pyridin-3(2H)-one]: 20.5%. The same measure, in the same setting: the same measure for `Cc1cc(Cn2nc3ccc(-c4ccc(OC(F)(F)F)cc4)cn3c2=O)on1` [compound 164, 2-((3-methylisoxazol-5-yl)methyl)-6-(4-(trifluoromethoxy)phenyl)-[1,2,4]triazolo[4,3-a]pyridin-3(2H)-one]: 16.9%; for `Cc1noc(Cn2nc3ccc(-c4ccc(OC(F)(F)F)c(F)c4)cn3c2=O)n1` [compound 155, 6-(3-fluoro-4-(trifluoromethoxy)phenyl)-2-((3-methyl-1,2,4-oxadiazol-5-yl)methyl)-[1,2,4]triazolo[4,3-a]pyridin-3(2H)-one]: 18.8%; for `CCOc1ccccc1OCc1nc(Cn2nc3ccc(-c4ccc(OC(F)(F)F)cc4)cn3c2=O)no1` [compound 176, 2-((5-((2-ethoxyphenoxy)methyl)-1,2,4-oxadiazol-3-yl)methyl)-6-(4-(trifluoromethoxy)phenyl)-[1,2,4]triazolo[4,3-a]pyridin-3(2H)-one]: 25.5%.

With `O=c1n(CCc2ccc(F)cc2F)nc2ccc(-c3ccc(OC(F)(F)F)cc3)cn12` [compound 78, 2-(2,4-difluorophenethyl)-6-(4-(trifluoromethoxy)phenyl)-[1,2,4]triazolo[4,3-a]pyridin-3(2H)-one], the inhibition at 1 µM amounted to 36.7%.

On to `O=c1n(Cc2nonc2-c2ccccc2)nc2ccc(-c3ccc(OC(F)(F)F)cc3)cn12` [compound 17, 2-((4-phenyl-1,2,5-oxadiazol-3-yl)methyl)-6-(4-(trifluoromethoxy)phenyl)-[1,2,4]triazolo[4,3-a]pyridin-3(2H)-one], for which the inhibition at 1 µM is 18.4%. Still for that read-out and setting: the same measure for `Cn1cc(Cn2nc3ccc(-c4ccc(OC(F)(F)F)cc4)cn3c2=O)cn1` [compound 163, 2-((1-methyl-1H-pyrazol-4-yl)methyl)-6-(4-(trifluoromethoxy)phenyl)-[1,2,4]triazolo[4,3-a]pyridin-3(2H)-one]: 12%. Take `CO[C@H](COc1ccccc1Cl)Cn1nc2ccc(-c3ccc(OC(F)(F)F)cc3)cn2c1=O` [compound 95, (S)-2-(3-(2-chlorophenoxy)-2-methoxypropyl)-6-(4-(trifluoromethoxy)phenyl)-[1,2,4]triazolo[4,3-a]pyridin-3(2H)-one]: the inhibition at 1 µM worked out at 42.5%.

`N#Cc1ccccc1OCC(O)Cn1nc2ccc(-c3ccc(OC(F)(F)F)cc3)cn2c1=O` (centres unmarked) [compound 101, 2-(2-hydroxy-3-(3-oxo-6-(4-(trifluoromethoxy)phenyl)-[1,2,4]triazolo[4,3-a]pyridin-2(3H)-yl)propoxy)benzonitrile]: the inhibition at 1 µM amounted to 11.7%.

Regarding `N#CCOc1ccnc(OCCn2nc3ccc(-c4ccc(OC(F)(F)F)cc4)cn3c2=O)n1` [compound 160], the “Late INa 1 μM (percent block of late INa)” value (compound at 1 μM) stood at 24.6907%. In the case of `O=c1n(CCCOc2ccccc2Cl)nc2ccc(-c3ccc(OC(F)(F)F)cc3)cn12` [compound 52, 2-(3-(2-chlorophenoxy)propyl)-6-(4-(trifluoromethoxy)phenyl)-[1,2,4]triazolo[4,3-a]pyridin-3(2H)-one], the inhibition at 1 µM amounted to 33.3%. On the same count and under the same terms, the same measure for `O=c1n(Cc2nnc(C3CC3)o2)nc2ccc(-c3ccc(Oc4ccc(F)cc4)cc3)cn12` [compound 182, 2-((5-cyclopropyl-1,3,4-oxadiazol-2-yl)methyl)-6-(4-(4-fluorophenoxy)phenyl)-[1,2,4]triazolo[4,3-a]pyridin-3(2H)-one]: 45.9%; for `Cc1ncc(Cn2nc3ccc(-c4ccc(C(F)(F)F)cc4)cn3c2=O)o1` [compound 197, 2-((2-methyloxazol-5-yl)methyl)-6-(4-(trifluoromethyl)phenyl)-[1,2,4]triazolo[4,3-a]pyridin-3(2H)-one]: 19.7%. The same measure, in the same setting: the same measure for `COCc1noc(Cn2nc3ccc(-c4ccc(C(F)(F)F)cc4)cn3c2=O)n1` [compound 168, 2-((3-(methoxymethyl)-1,2,4-oxadiazol-5-yl)methyl)-6-(4-(trifluoromethyl)phenyl)-[1,2,4]triazolo[4,3-a]pyridin-3(2H)-one]: 19.1%; for `O=c1n(CCn2cccn2)nc2ccc(-c3ccc(OC(F)(F)F)cc3)cn12` [compound 35, 2-(2-(1H-pyrazol-1-yl)ethyl)-6-(4-(trifluoromethoxy)phenyl)-[1,2,4]triazolo[4,3-a]pyridin-3(2H)-one]: 12.2%; for `O=c1n(CCCc2ccc(F)c(-c3ncco3)c2)nc2ccc(-c3ccc(OC(F)(F)F)cc3)cn12` [compound 119, 2-(3-(4-fluoro-3-(oxazol-2-yl)phenyl)propyl)-6-(4-(trifluoromethoxy)phenyl)-[1,2,4]triazolo[4,3-a]pyridin-3(2H)-one]: 22%. On the same count and under the same terms, the same measure for `Cc1cc(Cn2nc3ccc(-c4ccc(OC(F)(F)F)cc4)cn3c2=O)no1` [compound 5, 2-((5-methylisoxazol-3-yl)methyl)-6-(4-(trifluoromethoxy)phenyl)-[1,2,4]triazolo[4,3-a]pyridin-3(2H)-one]: 28.3%. On to `COc1ccccc1OCC(Cn1nc2ccc(-c3ccc(OC(F)(F)F)cc3)cn2c1=O)OC` (centres unmarked) [compound 23, 2-(2-methoxy-3-(2-methoxyphenoxy)propyl)-6-(4-(trifluoromethoxy)phenyl)-[1,2,4]triazolo[4,3-a]pyridin-3(2H)-one], for which the inhibition at 1 µM came out at 55.1%. On the same count and under the same terms, the same measure for `COc1nc(OCCn2nc3ccc(-c4ccc(OC(F)(F)F)cc4)cn3c2=O)ncc1Cl` [compound 130, 2-(2-(5-chloro-4-methoxypyrimidin-2-yloxy)ethyl)-6-(4-(trifluoromethoxy)phenyl)-[1,2,4]triazolo[4,3-a]pyridin-3(2H)-one]: 32.4%; for `O=c1n(-c2ccccn2)nc2ccc(-c3ccc(OC(F)(F)F)cc3)cn12` [compound 34, 2-(pyridin-2-yl)-6-(4-(trifluoromethoxy)phenyl)-[1,2,4]triazolo[4,3-a]pyridin-3(2H)-one]: 26%; for `CCOc1ccnc(OCCn2nc3ccc(-c4ccc(OC(F)(F)F)cc4)cn3c2=O)n1` [compound 106, 2-(2-(4-ethoxypyrimidin-2-yloxy)ethyl)-6-(4-(trifluoromethoxy)phenyl)-[1,2,4]triazolo[4,3-a]pyridin-3(2H)-one]: 47.2%.

(Values after patent publication US9079901B2, “Fused heterocyclic compounds as ion channel modulators” (Gilead Sciences, Inc., priority 2010, dated 2015).)
